The supplement of paper PMC8612539
In brackets after ≈: the same amount, converted by molar mass.

Assays:
Mannheimia haemolytica = experiment: minimum inhibitory concentration (MIC)
Description: (§1)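 Broth microdilution MIC (Sensititre BOPO7F bovine plate, CLSI methods) of 19 antimicrobials against field isolates of P. multocida, M. haemolytica, H. somni (deep nasopharyngeal swabs) and E. coli, Enterococcus spp. (rectal swabs) from weaned dairy heifers. Incubation 16-24 h at 35 C. MIC is the lowest concentration preventing visible growth. Values with <= or > lie at the tested range limits. Trimethoprim-sulfamethoxazole is given as the trimethoprim component of a 1:19 mixture.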

Enterococcus spp. = experiment: minimum inhibitory concentration (MIC)
Description: as §1

CCCNC[C@]1(O)[C@H](C)O[C@@H](O[C@H]2[C@H](C)[C@@H](O[C@@H]3O[C@H](C)C[C@H](N(C)C)[C@H]3O)[C@](C)(O)C[C@@H](C)CN[C@H](C)[C@@H](O)[C@](C)(O)[C@@H](CC)OC(=O)[C@@H]2C)C[C@@]1(C)OC [Tulathromycin]
minimum inhibitory concentration [µg/mL]
Details	Enterococcus spp.	Mannheimia haemolytica
isolate (source animal id): 2	≤ 8	–
isolate (source animal id): 8	–	≤ 8
isolate (source animal id): 13	–	≤ 8
isolate (source animal id): 18	–	≤ 8
isolate (source animal id): 21	–	≤ 8
isolate (source animal id): 25	–	16 (≈ 19.8 µM)
isolate (source animal id): 27	–	16 (≈ 19.8 µM)
isolate (source animal id): 28	–	≤ 8
isolate (source animal id): 30	–	≤ 8
isolate (source animal id): 31	–	16 (≈ 19.8 µM)
isolate (source animal id): 32	–	≤ 8
isolate (source animal id): 34	–	≤ 8
isolate (source animal id): 35	> 64	–
isolate (source animal id): 36	–	16 (≈ 19.8 µM)
isolate (source animal id): 37	–	16 (≈ 19.8 µM)
isolate (source animal id): 40	–	≤ 8
isolate (source animal id): 41	–	≤ 8
isolate (source animal id): 42	≤ 8	–
isolate (source animal id): 43	–	≤ 8
isolate (source animal id): 44	≤ 8	–
isolate (source animal id): 46	–	16 (≈ 19.8 µM)
isolate (source animal id): 49	–	16 (≈ 19.8 µM)
isolate (source animal id): 50	–	16 (≈ 19.8 µM)
isolate (source animal id): 51	–	≤ 8
isolate (source animal id): 52	–	≤ 8
isolate (source animal id): 53	–	≤ 8
isolate (source animal id): 55	–	≤ 8
isolate (source animal id): 56	–	≤ 8
isolate (source animal id): 57	–	> 64
isolate (source animal id): 79	≤ 8	–
isolate (source animal id): 88	≤ 8	–
isolate (source animal id): 91	≤ 8	–
isolate (source animal id): 92	16 (≈ 19.8 µM)	–
isolate (source animal id): 100	–	16 (≈ 19.8 µM)
isolate (source animal id): 103	–	16 (≈ 19.8 µM)
isolate (source animal id): 107	–	16 (≈ 19.8 µM)
isolate (source animal id): 108	–	16 (≈ 19.8 µM)
isolate (source animal id): 111	≤ 8	–
isolate (source animal id): 112	–	> 64
isolate (source animal id): 113	–	> 64
isolate (source animal id): 121	–	16 (≈ 19.8 µM)
isolate (source animal id): 122	> 64	16 (≈ 19.8 µM)
isolate (source animal id): 123	≤ 8	> 64
isolate (source animal id): 126	–	64 (≈ 79.4 µM)
isolate (source animal id): 133	≤ 8	> 64
isolate (source animal id): 135	–	> 64
isolate (source animal id): 138	–	64 (≈ 79.4 µM)
isolate (source animal id): 141	–	> 64
isolate (source animal id): 142	–	64 (≈ 79.4 µM)
isolate (source animal id): 145	–	16 (≈ 19.8 µM)
isolate (source animal id): 149	–	≤ 8
isolate (source animal id): 151	–	≤ 8
isolate (source animal id): 152	–	16 (≈ 19.8 µM)
isolate (source animal id): 154	–	≤ 8
isolate (source animal id): 158	> 64	–
isolate (source animal id): 159	–	> 64
isolate (source animal id): 162	–	64 (≈ 79.4 µM)
isolate (source animal id): 168	≤ 8	–
isolate (source animal id): 169	≤ 8	–
isolate (source animal id): 170	–	≤ 8
isolate (source animal id): 171	≤ 8	≤ 8
isolate (source animal id): 172	–	≤ 8
isolate (source animal id): 173	–	≤ 8
isolate (source animal id): 175	> 64	–
isolate (source animal id): 177	≤ 8	–
isolate (source animal id): 179	–	≤ 8
isolate (source animal id): 180	–	≤ 8
isolate (source animal id): 181	≤ 8	–
isolate (source animal id): 182	≤ 8	–
isolate (source animal id): 183	≤ 8	≤ 8
isolate (source animal id): 186	–	≤ 8
isolate (source animal id): 187	≤ 8	≤ 8
isolate (source animal id): 188	–	≤ 8
isolate (source animal id): 190	≤ 8	≤ 8
isolate (source animal id): 191	–	≤ 8
isolate (source animal id): 192	–	≤ 8
isolate (source animal id): 194	≤ 8	–
isolate (source animal id): 195	≤ 8	–
isolate (source animal id): 197	≤ 8	–
isolate (source animal id): 201	–	≤ 8
isolate (source animal id): 202	–	≤ 8
isolate (source animal id): 209	–	≤ 8
isolate (source animal id): 211	≤ 8	≤ 8
isolate (source animal id): 214	16 (≈ 19.8 µM)	–
isolate (source animal id): 220	–	≤ 8
isolate (source animal id): 221	–	≤ 8
isolate (source animal id): 222	≤ 8	–
isolate (source animal id): 223	≤ 8	≤ 8
isolate (source animal id): 228	> 64	–
isolate (source animal id): 230	> 64	–
isolate (source animal id): 233	–	16 (≈ 19.8 µM)
isolate (source animal id): 235	> 64	–
isolate (source animal id): 236	≤ 8	–
isolate (source animal id): 237	–	32 (≈ 39.7 µM)
isolate (source animal id): 239	≤ 8	–
isolate (source animal id): 241	> 64	16 (≈ 19.8 µM)
isolate (source animal id): 244	≤ 8	–
isolate (source animal id): 246	≤ 8	–
isolate (source animal id): 247	> 64	–
isolate (source animal id): 250	≤ 8	–
isolate (source animal id): 252	> 64	16 (≈ 19.8 µM)
isolate (source animal id): 253	–	16 (≈ 19.8 µM)
isolate (source animal id): 259	–	> 64
isolate (source animal id): 260	–	16 (≈ 19.8 µM)
isolate (source animal id): 262	–	16 (≈ 19.8 µM)
isolate (source animal id): 268	> 64	–
isolate (source animal id): 282	≤ 8	> 64
isolate (source animal id): 285	> 64	–
isolate (source animal id): 287	–	16 (≈ 19.8 µM)
isolate (source animal id): 288	–	≤ 8
isolate (source animal id): 289	≤ 8	–
isolate (source animal id): 290	≤ 8	–
isolate (source animal id): 291	–	≤ 8
isolate (source animal id): 293	–	16 (≈ 19.8 µM)
isolate (source animal id): 296	≤ 8	–
isolate (source animal id): 298	≤ 8	> 64
isolate (source animal id): 299	–	> 64
isolate (source animal id): 300	–	≤ 8
isolate (source animal id): 301	≤ 8	–
isolate (source animal id): 302	–	> 64
isolate (source animal id): 304	–	> 64
isolate (source animal id): 306	–	≤ 8
isolate (source animal id): 308	–	≤ 8
isolate (source animal id): 309	–	≤ 8
isolate (source animal id): 310	> 64	–
isolate (source animal id): 313	–	32 (≈ 39.7 µM)
isolate (source animal id): 318	–	≤ 8
isolate (source animal id): 320	≤ 8	≤ 8
isolate (source animal id): 321	–	32 (≈ 39.7 µM)
isolate (source animal id): 323	–	> 64
isolate (source animal id): 324	–	16 (≈ 19.8 µM)
isolate (source animal id): 326	–	32 (≈ 39.7 µM)
isolate (source animal id): 328	–	32 (≈ 39.7 µM)
isolate (source animal id): 329	–	32 (≈ 39.7 µM)
isolate (source animal id): 331	≤ 8	–
isolate (source animal id): 333	≤ 8	32 (≈ 39.7 µM)
isolate (source animal id): 335	–	16 (≈ 19.8 µM)
isolate (source animal id): 338	–	16 (≈ 19.8 µM)
isolate (source animal id): 341	> 64	–
